Among the test systems are A498; ACHN; HOP-62; IGROV-1; OVCAR-8; RPMI-8226; RXF 393; SF-268; SF-295; SK-MEL-5; SK-OV-3; SN12C; SNB-19; TK-10; UACC-257; HCT-116; HOP-92; PC-3.
What all share (assay): inhibition of tumour cell growth, NCI panel, 48 h

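Cells were grown in 96-well plates and exposed to each compound for 48 hours at five concentrations; endpoints were interpolated linearly between bracketing concentrations, or set to the highest concentration if not reached. The concentration for 50% growth inhibition is given as GI50.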 Activity calls are given as the source filed them. Cut-off read from the data, not from the text of the source: active = GI50 up to about 1.1 µM and inactive = higher.

On to `O=C(c1ccc(Cl)cc1Cl)N(/N=C/C=C/c1ccccc1)c1nnc(-c2ccccc2)c(-c2ccccc2)n1`, for which the GI50 with A498 was > 100 µM (inactive); with ACHN it was > 100 µM (inactive); in the assay with HOP-62, > 100 µM (inactive); in the assay on IGROV-1 it was > 100 µM (inactive); in the assay on OVCAR-8 it was > 100 µM (inactive); in the assay with RPMI-8226 it was 37.5 µM (inactive). Moreover, the GI50 with RXF 393, in the assay on SF-268, in the assay on SF-295, in the assay with SK-MEL-5, in the assay on SK-OV-3 and with SN12C was > 100 µM (inactive) throughout. Moreover, the GI50 in the assay with SNB-19, in the assay on TK-10 and in the assay with UACC-257 was > 100 µM (inactive) in each case.
On to `COc1ccc(OC)c(NC(=O)C(=O)NNC(=O)c2sc(NNC(C)=O)nc2C)c1`, for which the GI50 is 8.3 µM (inactive) in the assay with A498; 29.2 µM (inactive) in the assay on ACHN; 28.6 µM (inactive) with HCT-116; 92.9 µM (inactive) in the assay on HOP-62; 8.69 µM (inactive) in the assay on HOP-92; 53.5 µM (inactive) in the assay on IGROV-1. The GI50 in the assay on OVCAR-8 is 34.9 µM (inactive); in the assay on RPMI-8226 it was 30.3 µM (inactive); in the assay with SF-268 it was 27.3 µM (inactive); with SF-295, 32 µM (inactive); with SK-MEL-5 it was 39.9 µM (inactive); in the assay with SK-OV-3 it was 57.7 µM (inactive). For the same molecule, the GI50 in the assay on SN12C is 33 µM (inactive); with SNB-19, 59.4 µM (inactive); with TK-10, 88.3 µM (inactive); in the assay on UACC-257 it was 23.6 µM (inactive).
Regarding `C=C1C(=O)OC2/C=C(\C)C3OC3/C=C(/C(=O)OC)C(O)C(OC(=O)C3(C)OC3C)C12` (stereo not drawn), the GI50 in the assay with A498 is 7.64 µM (inactive); with ACHN, 3.14 µM (inactive); in the assay on HCT-116 it was 1.11 µM (active); with HOP-62, 17.7 µM (inactive); in the assay on HOP-92, 2.86 µM (inactive); in the assay on IGROV-1 it was 2.3 µM (inactive). Moreover, the GI50 in the assay with OVCAR-8 was 1.25 µM (inactive); with RXF 393 it was 1.02 µM (active); with SF-268, 15.3 µM (inactive); with SF-295, 13.6 µM (inactive); in the assay on SK-MEL-5, 1.31 µM (inactive); in the assay with SK-OV-3 it was 13.4 µM (inactive). In addition, the GI50 in the assay on SN12C was 2.39 µM (inactive); with TK-10, 2.74 µM (inactive); in the assay on UACC-257, 1.53 µM (inactive).
Consider `NCc1ccc(O)c(O)c1`, for which the GI50 was > 100 µM (inactive) in the assay on A498; > 100 µM (inactive) in the assay on ACHN; > 100 µM (inactive) in the assay on HCT-116; > 100 µM (inactive) in the assay on HOP-62; > 100 µM (inactive) with HOP-92; 60.1 µM (inactive) in the assay on IGROV-1. Moreover, the GI50 with OVCAR-8, with PC-3, with RPMI-8226, in the assay on RXF 393, in the assay with SF-295 and with SK-MEL-5 was > 100 µM (inactive) each time. For the same molecule, the GI50 in the assay with SK-OV-3, in the assay on SN12C, with SNB-19 and in the assay on UACC-257 was > 100 µM (inactive) in each case.
With `NC(=O)c1ccc([N+](=O)[O-])cc1`, the GI50 with A498, in the assay on HOP-62, in the assay on IGROV-1, in the assay on OVCAR-8, in the assay on RPMI-8226 and with RXF 393 was > 100 µM (inactive) in each case. Also, the GI50 in the assay on SF-268, in the assay on SF-295, in the assay with SK-MEL-5, with SK-OV-3, in the assay with SN12C and with SNB-19 was > 100 µM (inactive) in each case. Moreover, the GI50 with TK-10 and in the assay with UACC-257 was > 100 µM (inactive) throughout.
Regarding `COc1ccc(CCc2cc(OC)c(O)c(OC)c2)cc1`, the GI50 with ACHN is 80.5 µM (inactive); in the assay with HCT-116, 59 µM (inactive); in the assay with HOP-62, 98.6 µM (inactive); in the assay with HOP-92 it was 66.8 µM (inactive); in the assay on IGROV-1, > 100 µM (inactive); in the assay on OVCAR-8, > 100 µM (inactive). Moreover, the GI50 in the assay on RPMI-8226 is 50.8 µM (inactive); with SF-268, 73.5 µM (inactive); with SK-MEL-5, 32.8 µM (inactive); in the assay with SK-OV-3 it was > 100 µM (inactive); in the assay on SN12C, > 100 µM (inactive); in the assay on SNB-19 it was 98.6 µM (inactive). For the same molecule, the GI50 in the assay with UACC-257 was 29.3 µM (inactive).
On to `O=C(O)c1cc(=O)c2cc(C(=O)c3cccs3)c(Cl)c(Cl)c2o1`, for which the GI50 in the assay with A498, in the assay on ACHN, in the assay on HOP-62, with HOP-92, with IGROV-1 and in the assay with OVCAR-8 was > 100 µM (inactive) throughout. The GI50 in the assay on RPMI-8226, in the assay with SF-268, in the assay on SF-295, in the assay on SK-MEL-5, in the assay with SK-OV-3 and in the assay on SN12C was > 100 µM (inactive) throughout. The GI50 in the assay on SNB-19, in the assay with TK-10 and with UACC-257 was > 100 µM (inactive) throughout.
Take `COc1ccc(COCC(Cn2ccnc2)OCc2ccc(C(=O)O)cc2)cc1` (stereo not drawn): the GI50 in the assay on A498, in the assay with ACHN, with HCT-116, in the assay with HOP-62, in the assay with HOP-92 and with IGROV-1 was > 100 µM (inactive) each time. In addition, the GI50 in the assay with OVCAR-8, with RPMI-8226, in the assay with RXF 393, with SF-268, with SF-295 and in the assay with SK-MEL-5 was > 100 µM (inactive) throughout. The GI50 in the assay on SK-OV-3, in the assay on SN12C, with TK-10 and with UACC-257 was > 100 µM (inactive) throughout.
As to `COc1cccc(N2C(=O)[C@H]3CC(C)c4c([nH]c5ccccc45)[C@H]3C2=O)c1` (stereo partly drawn), the GI50 in the assay with A498 was 89.7 µM (inactive); in the assay with HOP-62 it was 16.8 µM (inactive); in the assay with HOP-92 it was 20.7 µM (inactive); in the assay on IGROV-1, > 100 µM (inactive); in the assay with OVCAR-8, 50 µM (inactive); in the assay on RPMI-8226, 38.9 µM (inactive). The GI50 in the assay with RXF 393 was 13.9 µM (inactive); with SF-268 it was > 100 µM (inactive); in the assay on SF-295 it was 23.3 µM (inactive); with SK-MEL-5, 63.8 µM (inactive); in the assay on SK-OV-3 it was 27.7 µM (inactive); in the assay with SN12C it was 78 µM (inactive). Moreover, the GI50 with SNB-19 is 28.4 µM (inactive); in the assay with TK-10, 55.7 µM (inactive); with UACC-257 it was 42.9 µM (inactive).
`C=CCCCN1C(=O)C2C3c4ccccc4C(C=O)(c4ccccc43)C2C1=O` (stereo not drawn): the GI50 in the assay with ACHN is 13.6 µM (inactive); in the assay on HCT-116 it was 3.13 µM (inactive); in the assay with HOP-62, 14.5 µM (inactive); in the assay on HOP-92, 11.3 µM (inactive); in the assay on IGROV-1, 13.6 µM (inactive); in the assay on OVCAR-8, 13.4 µM (inactive). The GI50 in the assay with PC-3 was 6.18 µM (inactive); in the assay on RPMI-8226, 6.84 µM (inactive); with SF-268, 14.5 µM (inactive); in the assay on SF-295, 9.91 µM (inactive); in the assay on SK-MEL-5 it was 11.3 µM (inactive); in the assay with SK-OV-3, 18.2 µM (inactive). In addition, the GI50 was 7.93 µM (inactive) in the assay with SN12C, 13.1 µM (inactive) in the assay with SNB-19, 16.1 µM (inactive) in the assay with TK-10 and 13 µM (inactive) in the assay on UACC-257.
`Cn1c2ccccc2n2c3ncccc3c(=O)cc12`: the GI50 was 24.6 µM (inactive) in the assay with A498; 27 µM (inactive) with ACHN; 15 µM (inactive) in the assay on HCT-116; 32.1 µM (inactive) in the assay on HOP-62; 54.5 µM (inactive) in the assay on HOP-92; 28.9 µM (inactive) with IGROV-1. The GI50 with OVCAR-8 was 46.3 µM (inactive); in the assay on RPMI-8226, 48.1 µM (inactive); in the assay with RXF 393 it was 62.8 µM (inactive); in the assay on SF-268, 64.4 µM (inactive); in the assay with SF-295, 45.1 µM (inactive); in the assay with SK-MEL-5, 32.9 µM (inactive). Further, the GI50 in the assay on SK-OV-3 is > 100 µM (inactive); in the assay with SN12C, 44.7 µM (inactive); with SNB-19, 35.2 µM (inactive); in the assay on TK-10, 74.6 µM (inactive); in the assay with UACC-257, 75 µM (inactive).
With `Clc1ccccc1/C=C/c1cscn1`, the GI50 in the assay with A498, in the assay on ACHN, in the assay with HCT-116, in the assay with HOP-62, with RPMI-8226 and in the assay on RXF 393 was > 100 µM (inactive) in each case. The GI50 in the assay with SF-268, in the assay on SK-OV-3, in the assay on SN12C, in the assay with SNB-19, in the assay on TK-10 and with UACC-257 was > 100 µM (inactive) in each case.
For `COc1ccc(-c2nc(-c3cnccn3)n(C/C=C/c3ccccc3)n2)cc1`, the GI50 in the assay with HCT-116 was 92.3 µM (inactive); with HOP-62 it was 21.5 µM (inactive); with HOP-92 it was 11.5 µM (inactive); with IGROV-1 it was 48.1 µM (inactive); with OVCAR-8, 47.9 µM (inactive); in the assay with PC-3 it was > 100 µM (inactive). Further, the GI50 in the assay on RPMI-8226 was > 100 µM (inactive); in the assay on SF-295 it was 32.1 µM (inactive); in the assay on SK-MEL-5, 44.4 µM (inactive); in the assay on SK-OV-3, 17.9 µM (inactive); in the assay with SN12C, > 100 µM (inactive); with SNB-19, 37.2 µM (inactive). Also, the GI50 with UACC-257 was > 100 µM (inactive).

The record behind these values is ChEMBL document CHEMBL1201862, “PubChem BioAssay data set” (2004).
